Data from EP0038046A2, “Pharmaceutical amides, and preparation, formulations and use thereof” (THE WELLCOME FOUNDATION LIMITED, priority 1980, dated 1981).

Columns and labels:
enkephalinase Al = molecular target: T1, enkephalinase Al (Rattus norvegicus, UniProt P07861); test: Enkephalinase-inhibiting activity, method A (purified enkephalinase A1, 3H-leucine enkephalin hydrolysis to 3H-TGG, TLC separation); format: biochemical, Rats; details: leucine enkephalin 5 x 10^-5M, 30°C, IC50 determined graphically, read-out: Approx IC50
T1 construct: the solubilised enzymes contained in the supernatant separated by DEAE- cellulose column chromatography; Enkephalinase Al was further purified by Sephacryl S.300 chromatography; from tissue; host or cells: rat striatum (Triton X-100 solubilised membrane pellet, DEAE-cellulose and Sephacryl S.300 chromatography)
T1 sequence (P07861 1-750): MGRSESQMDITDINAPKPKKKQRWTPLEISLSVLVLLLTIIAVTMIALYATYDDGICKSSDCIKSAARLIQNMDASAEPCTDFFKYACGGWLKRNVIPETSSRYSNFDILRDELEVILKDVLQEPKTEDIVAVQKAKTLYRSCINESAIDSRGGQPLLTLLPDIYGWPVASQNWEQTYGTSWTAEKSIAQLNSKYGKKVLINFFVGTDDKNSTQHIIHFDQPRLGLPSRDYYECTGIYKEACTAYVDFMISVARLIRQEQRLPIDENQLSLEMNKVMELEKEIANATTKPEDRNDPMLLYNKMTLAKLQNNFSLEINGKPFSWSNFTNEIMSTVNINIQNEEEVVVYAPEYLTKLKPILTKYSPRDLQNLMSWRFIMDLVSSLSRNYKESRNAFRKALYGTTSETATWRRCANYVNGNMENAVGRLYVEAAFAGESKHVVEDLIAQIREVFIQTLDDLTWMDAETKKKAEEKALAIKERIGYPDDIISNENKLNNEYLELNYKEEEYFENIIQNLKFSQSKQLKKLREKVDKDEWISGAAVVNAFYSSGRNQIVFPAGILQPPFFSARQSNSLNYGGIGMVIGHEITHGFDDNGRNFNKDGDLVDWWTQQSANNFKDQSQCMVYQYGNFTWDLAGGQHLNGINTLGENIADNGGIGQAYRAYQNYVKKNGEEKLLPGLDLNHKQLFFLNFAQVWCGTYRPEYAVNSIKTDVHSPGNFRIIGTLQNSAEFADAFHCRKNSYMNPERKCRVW

enkephalinase = molecular target: T2, enkephalinase (Rattus norvegicus, UniProt P07861); test: Enkephalinase-inhibiting activity, method B (striatal membrane homogenate, 3H-leucine enkephalin hydrolysis to 3H-TGG); format: biochemical, rats; details: method B (figures marked with an asterisk), 3H-leucine enkephalin 3 x 10^-8M, 22°C, only approximate due to catabolism of 3H-TGG by aminopeptidase(s), read-out: Approx IC50
T2 construct: from tissue; host or cells: rat striatum, crude washed membrane pellet (47,000 g)
T2 sequence (P07861 1-750): T1 sequence (P07861 1-750)
Experimental: B) The following method is-a modification of the method of Malfroy et al; Nature Vol..276, 30 November 1978 pages 523 to 526. Three rats were killed by decapitation and the striata dissected out on ice. The pooled tissues were homogenised in ice-cold Tris/hydrochloric acid buffer (50 mM, pH 7.60, 10.0 ml) and centrifuged (1000 g, 10 mins). The resulting supernatant was recentrifuged (47,000 g, 20 mins) and the second supernatant discarded. The pellet was washed twice and finally resuspended in buffer as before (9.6 ml) and aliquots (1.9 ml) of this suspension incubated at 22°C. […] At the completion of incubation N hydrochloric acid (50 μl) was added, the mixture heated in a boiling water bath for 15 mins and precipitated material then removed by centrifugation (1500 g, 10 mins). Separation of • (a) unchanged ^3H-leucine enkephalin, • ([…]-OH (^3H-TGG), generated from (a) by enkephalinase, and • (c) ^3H-Tyr-OH, generated from both (a) and (b) by aminopeptidase(s) in the supernatant and the subsequent procedure was carried out as described in method A) above.

mice = test: Antinociceptive activity, acetic acid writhing assay (modified Siegmund et al.); format: in vivo
Experimental: The antinociceptive activity of compound 1 was tested in vivo in mice using the following method:-
A modification of the writhing assay of Siegmund et al (Proc. Soc. exp. Biol. Med., 1957, 95: 727-731) was used. Compound 1 dissolved in saline, or saline alone, was administered intracerebroventricularly (i.c.v.) to groups of 5 mice at the doses shown below.-1 hour or 2 hours later, the mice were injected i.p. with the nonciceptive stimulus, i.e. 0.6% (v/v) aqueous acetic acid. […] An antinociceptive compound will reduce the number of writhes and this may be expressed as a percentage inhibition: [formula]

CSCC[C@@H](NC(=O)C(CC(=O)O)Cc1ccccc1)C(=O)O (mixture of isomers) [compound 12, (2R)-2-[(2RS)-2-Benzyl-3-carboxypropanamido]-4-(methylthio)butanoic acid]
IC50 (enkephalinase Al): 19 µM

CC(C)C[C@H](NC(=O)[C@H](CC(=O)O)Cc1ccccc1)C(=O)O [compound 3, (2S)-2-[(2S)-2-benzyl-3-carboxypropanamido]-4-methylpentanoic acid]
IC50 (enkephalinase): 4 µM

CC(C)C[C@H](NC(=O)[C@@H](CC(=O)O)Cc1ccccc1)C(N)=O [compound 4, (2S)-2-[(2R)-2-Eenzyl-3-carboxypropanamido]-4-methylpentanamide]
IC50 (enkephalinase Al): > 100 µM

CSCC[C@@H](NC(=O)C(CS)Cc1ccccc1)C(=O)O (stereo partly drawn) [compound 15, (2R)-2-[2RS-2-Benzyl-3-mercaptopropanamido]-4-(methylthio)-butanoic acid]
IC50 (enkephalinase Al): 0.15 µM

CC(C)C[C@H](NC(=O)C(CC(=O)O)Cc1ccccc1)C(=O)O (mixture of isomers) [compound 1, (2S)-2-[(2RS)-2-Benzyl-3-carboxypropanamido]-4-methylpentanoic acid]
% inhibition of writhes (mice; 5 µg mouse i.c.v., 1h prior to acetic acid): slight potentiation
% inhibition of writhes (mice; 5 µg mouse i.c.v., 2h prior to acetic acid): 36%
% inhibition of writhes (mice; 10 µg mouse i.c.v., 1h prior to acetic acid): 28%
% inhibition of writhes (mice; 10 µg mouse i.c.v., 2h prior to acetic acid): 48%
% inhibition of writhes (mice; 20 µg mouse i.c.v., 1h prior to acetic acid): 32%
% inhibition of writhes (mice; 20 µg mouse i.c.v., 2h prior to acetic acid): 44%
% inhibition of writhes (mice; 40 µg mouse i.c.v., 1h prior to acetic acid): 75%
% inhibition of writhes (mice; 40 µg mouse i.c.v., 2h prior to acetic acid): 84%
IC50 (enkephalinase Al): 17 µM

(2S)-2-[(2RS)-3-Acetylthio-2-benzylpropanamido]-4-methylpentanoic acid, dicyclohexylamine salt [compound 6]
IC50 (enkephalinase Al): 11 µM

CC(C)C[C@H](NC(=O)C(CC(=O)O)Cc1ccc([N+](=O)[O-])cc1)C(=O)O (stereo partly drawn) [compound 14]
IC50 (enkephalinase Al): 65 µM

CC(C)C[C@H](NC(=O)C(CS)Cc1ccccc1)C(N)=O (mixture of isomers) [compound 9, (2S)-2-[(2RS)-2-Benzyl-3-mercaptopropanamido]-4-methylpentanamide]
IC50 (enkephalinase Al): 0.33 µM

C[C@H](CS)C(=O)N1CCC[C@H]1C(=O)O [Captopril, 1-(D-3-mercapto-2-methylpropanoyl)-L-proline (R,S), reference compound]
IC50 (enkephalinase Al): 3000 µM

CC(C)C[C@H](NC(=O)[C@@H](CC(=O)O)Cc1ccccc1)C(=O)O [compound 2, (2S)-2-[(2R)-2-benzyl-3-carboxypropanamido]-4-methylpentanoic acid]
IC50 (enkephalinase): 7.2 µM

CSCC[C@H](NC(=O)C(CC(=O)O)Cc1ccccc1)C(=O)O (mixture of isomers) [compound 13, (2S)-2-[(2RS)-2-Benzyl-3-carboxypropanamido]-4-(methylthio)butanoic acid]
IC50 (enkephalinase Al): 4.3 µM

CC(C)C[C@@H](NC(=O)C(CC(=O)O)Cc1ccccc1)C(=O)O (stereo partly drawn) [compound 11, (2R)-2-[(2RS)-2-Benzyl-3-carboxypropanamido,]-4-methylpentanoic acid]
IC50 (enkephalinase Al): > 500 µM

(2$)-2-[(2R)-2-Benzyl-3-carboxypropanamido]-4-methylpentanamide [compound 10]
IC50 (enkephalinase): > 100 µM
